# Patent US20230190927A1, “ENPP1 INHIBITORS AND METHODS OF MODULATING IMMUNE RESPONSE” (Angarus Therapeutics, Inc., priority 2020, published 2023)
# Key:
# [1] = molecular target: T1, purified recombinant mouse ENPP1 (Mus musculus, UniProt P06802); experiment: ENPP1 activity assay using TMP-pNP as a substrate; type: biochemical; conditions: TMP-pNP 2 μM, mouse ENPP1 0.5 nM, pH 7.5, room temperature
# T1 sequence (P06802 1-906): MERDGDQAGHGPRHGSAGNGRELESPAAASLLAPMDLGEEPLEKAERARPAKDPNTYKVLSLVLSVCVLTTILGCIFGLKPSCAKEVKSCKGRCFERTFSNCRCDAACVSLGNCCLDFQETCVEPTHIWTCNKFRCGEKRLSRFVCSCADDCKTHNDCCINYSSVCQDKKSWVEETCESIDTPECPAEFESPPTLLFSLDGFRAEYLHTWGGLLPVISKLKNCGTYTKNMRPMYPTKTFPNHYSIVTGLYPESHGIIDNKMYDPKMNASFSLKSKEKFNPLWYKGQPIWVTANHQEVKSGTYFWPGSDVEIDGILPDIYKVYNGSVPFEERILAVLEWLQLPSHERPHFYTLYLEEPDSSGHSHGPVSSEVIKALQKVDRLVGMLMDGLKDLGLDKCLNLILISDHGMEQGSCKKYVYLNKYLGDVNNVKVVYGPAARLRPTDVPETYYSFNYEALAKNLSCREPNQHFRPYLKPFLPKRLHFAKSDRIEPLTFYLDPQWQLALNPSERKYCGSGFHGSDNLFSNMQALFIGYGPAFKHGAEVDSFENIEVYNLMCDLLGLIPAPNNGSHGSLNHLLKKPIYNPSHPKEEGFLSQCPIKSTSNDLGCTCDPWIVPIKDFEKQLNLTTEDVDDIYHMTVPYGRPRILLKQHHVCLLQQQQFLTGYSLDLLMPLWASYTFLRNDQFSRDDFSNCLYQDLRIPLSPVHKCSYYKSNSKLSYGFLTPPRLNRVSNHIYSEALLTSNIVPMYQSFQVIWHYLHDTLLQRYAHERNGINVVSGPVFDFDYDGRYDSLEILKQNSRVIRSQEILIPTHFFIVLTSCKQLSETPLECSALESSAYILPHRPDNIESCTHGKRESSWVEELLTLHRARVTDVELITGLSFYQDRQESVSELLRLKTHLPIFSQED
# Experimental: Selected compounds of Table 1, Table 2 and other derivatives were prepared and assessed in an ENPP1 activity assay using thymidine monophosphate paranitrophenol (TMP-pNP) as a substrate. Enzyme reactions were prepared with TMP-pNP (2 μM), 5-fold dilutions of ENPP1 inhibitor, and purified recombinant mouse ENPP1 (0.5 nM) in 100 mM Tris, 150 mM NaCl, 2 mM CaCl2, 200 μM ZnCl2, pH 7.5 at room temperature. Reaction progress was monitored by measuring absorbance at 400 nm of paranitrophenolate produced by the reaction for 20 minutes.
# 4T1 tumor [2] = experiment: 4T1 tumor model: IR with compound 1, cGAMP and/or anti-CTLA-4, tumor volume and survival; type: in vivo, mouse; conditions: 20 Gy IR, single agent intratumorally on day 2, 4 and 7 after IR (100 μL of 100 μM compound 1 or 10 μg cGAMP)
# Experimental: Tumor volumes were recorded every other day.
# [3] = molecular target: T1, purified recombinant mouse ENPP1; experiment: ENPP1 enzyme activity assay using 32P cGAMP as a substrate (TLC); type: biochemical
# Experimental: Compounds were also assessed in an ENPP1 enzyme activity assay using ^32P cGAMP as a substrate. Radiolabeled ^32P cGAMP was synthesized by incubating unlabeled ATP (1 mM) and GTP (1 mM) doped with ^32P-ATP with 2 μM purified recombinant porcine cGAS in 20 mM Tris pH 7.5, 2 mM MgCl2, 100 μg/mL herring testes DNA) overnight at room temperature, and the remaining nucleotide starting materials were degraded with alkaline phosphatase for 4 h at 37° C. The probe ^32P-cGAMP (5 μM) was incubated with purified recombinant mouse ENPP1 (20 nM) or whole cell lysates in 100 mM Tris, 150 mM NaCl, 2 mM CaCl2, 200 μM ZnCl2, pH 7.5 at room temperature for 5 hours. To generate enzyme inhibition curves, 5-fold dilutions of ENPP1 inhibitor were included in the reaction. […] Plates were exposed on a phosphor screen (Molecular Dynamics) and imaged on a Typhoon 9400 and the ^32P signal was quantified using ImageJ.
# 4T1 tumor [4] = experiment: Tumor-associated dendritic cells in mouse 4T1 tumor model (FACS); conditions: intratumoral 100 μL of 1 mM compound 1
# Experimental: Seven- to nine-week-old female Balb/c mice (Jackson Laboratories) were inoculated with 1×10^6 4 T1-luciferase tumor cells suspended in 50 μL of PBS into the mammary fat pad. […] Anaesthetized animals were shielded with a 3.2 mm lead shield with a 15×20 mm aperture where the tumor was placed. […] On the next day, the tumor was extracted and incubated in RPMI+ 10% FBS with 20 μg/mL DNase I type IV (Sigma-Aldrich) and 1 mg/mL Collagenase from Clostridium histolyticum (Sigma-Aldrich) at 37° C. for 30 min. […] Cells were stained with Live/Dead fixable near-IR dead cell staining kit (Thermo Fisher Scientific), Fc-blocked for 10 min using TruStain fcX and subsequently antibody-stained with CD11c, CD45, and I-A/I-E (all Biolegend). Cells were analyzed using an SH800S cell sorter (Sony) or an LSR II (BD Biosciences).
# Mean±SEM (n=2). **P=0.004 (Student's t test).
# [5] = 32P-cGAMP 5 μM, mouse ENPP1 20 nM, pH 7.5, room temperature, 5 hours, read-out: IC50 values (cGAMP; μM)
# Experimental for human CD14+ monocytes: Primary human peripheral blood mononucleocyte cells (PBMCs) were isolated by subjecting enriched buffy coat from whole blood to a Percoll density gradient. CD14^+ monocytes were isolated using CD14^+ MicroBeads (Miltenyi). CD14^+ monocytes were cultured in RMPI supplemented with 2% human serum and 100 U/mL penicillin-streptomycin. […] 24-26 hours following supernatant transfer, total RNA was extracted using Trizol (Thermo Fisher Scientific) and reverse transcribed with Maxima H Minus Reverse Transcriptase (Thermo Fisher Scientific). Real-time RT-PCR was performed in duplicate with AccuPower 2X Greenstar qPCR Master Mix (Bioneer) on a 7900HT Fast Real-Time PCR System (Applied Biosystems). Data were normalized to CD14 expression for each sample. Fold induction was calculated using ΔΔCt.
# Supernatant from these cells was transferred to primary CD14^+ human PBMCs. IFNB1 mRNA levels were normalized to CD14 and the fold induction was calculated relative to untreated CD14^+ cells.
smiles,measurement,setting,value
O=P(O)(O)CCC1CCN(c2ncnc3cc(Cl)ccc23)CC1 [Compound 84],IC50,[1],0.05 to 0.5 µM
"Nc1nc2c(ncn2[C@@H]2O[C@@H]3COP(=O)(O)O[C@H]4[C@@H](O)[C@H](n5cnc6c(N)ncnc65)O[C@@H]4COP(=O)(O)O[C@@H]2[C@@H]3O)c(=O)[nH]1 [cGAMP, cyclic guanosine monophosphate-adenosine monophosphate]",tumor shrinkage effect over IR treatment,4T1 tumor [2],had no effect over IR treatment
O=P(O)(O)CCC1CCN(c2ncnc3cc4c(cc23)OCCO4)CC1 [Compound 13],IC50,[1],0.5 to 5 µM
O=P(O)(O)CCC1CCN(c2ncnc3cccc(F)c23)CC1 [Compound 70],IC50,[1],0.5 to 5 µM
O=P(O)(O)CCC1CCN(c2ncnc3cc(O)ccc23)CC1 [Compound 5],IC50,[1],0.05 to 0.5 µM
COc1cccc2c(N3CCC(CCP(=O)(O)O)CC3)ncnc12 [Compound 76],IC50,[1],< 0.005 µM
same,IC50,[3],0.005 to 0.05 µM
COc1ccc(OC)c2c(N3CCC(CCP(=O)(O)O)CC3)ncnc12 [Compound 16],IC50,[1],0.5 to 5 µM
COc1ccc2c(N3CCC(CCP(=O)(O)O)CC3)ncnc2c1 [Compound 10],IC50,[1],< 0.005 µM
same,IC50,[3]; [5],0.05 to 0.5 µM
COc1cc2ncnc(N3CCC(CC(=O)NO)CC3)c2cc1OC [Compound 61],IC50,[1],0.5 to 5 µM
Cc1nccn1-c1cc(N2CCC(CCP(=O)(O)O)CC2)ncn1 [Compound 93],IC50,[1],0.05 to 0.5 µM
COc1cc2ncnc(N3CCC(COP(O)(O)=S)CC3)c2cc1OC [Compound 67],IC50,[1],0.005 to 0.05 µM
COc1cc(OC)c2ncnc(N3CCC(CCP(=O)(O)O)CC3)c2c1 [Compound 7],IC50,[1],0.05 to 0.5 µM
Nc1ccc2c(N3CCC(CCP(=O)(O)O)CC3)ncnc2c1 [Compound 30],IC50,[1],0.05 to 0.5 µM
COc1cc2ncnc(N3CCC(CCP(O)(O)=S)CC3)c2cc1OC [Compound 83],IC50,[1],0.05 to 0.5 µM
O=P(O)(O)CCC1CCN(c2ncnc3nc[nH]c23)CC1 [Compound 68],IC50,[1],> 5 µM
COc1ccc2c(N3CCC(CCP(=O)(O)O)CC3)nc(C)nc2c1 [Compound 12],IC50,[1],0.005 to 0.05 µM
same,IC50,[3]; [5],0.05 to 0.5 µM
COc1cc2ncnc(N3CCN(C(=O)CP(=O)(O)O)CC3)c2cc1OC [Compound 75],IC50,[1],0.05 to 0.5 µM
same,IC50,[3]; [5],0.5 to 5 µM
COc1ccc2c(N3CCC(CCP(=O)(O)O)CC3)nc(/C=C/c3cccnc3)nc2c1 [Compound 18],IC50,[1],< 0.005 µM
same,IC50,[3]; [5],0.05 to 0.5 µM
COc1cc2ncnc(N3CCC(CP(=O)(O)O)CC3)c2cc1OC [Compound 88],IC50,[1],0.05 to 0.5 µM
COc1ccc2c(N3CCC(CCP(=O)(O)O)CC3)ncnc2c1OC [Compound 22],IC50,[1],0.05 to 0.5 µM
COc1ccc2c(N3CCC(CCP(=O)(O)O)CC3)ncnc2c1OC [Compound 25],IC50,[1],0.005 to 0.05 µM
COc1ccc2c(N3CCN(CCP(=O)(O)O)CC3)ncnc2c1 [Compound 42],IC50,[1],> 5 µM
COc1cc2ncnc([C@H]3CC[C@@H](CCP(=O)(O)O)CC3)c2cc1OC [Compound 81],IC50,[1],0.005 to 0.05 µM
CC(C)Oc1ccc2c(N3CCC(CCP(=O)(O)O)CC3)ncnc2c1 [Compound 11],IC50,[1],> 5 µM
COc1ccc2ncnc(N3CCC(CCP(=O)(O)O)CC3)c2c1 [Compound 19],IC50,[1],0.005 to 0.05 µM
COc1cccc2c(N3CCC(CCP(O)(O)=S)CC3)ncnc12 [Compound 92],IC50,[1],< 0.005 µM
COc1cc2ncnc(N3CCC(CCB(O)O)CC3)c2cc1OC [Compound 87],IC50,[1],0.05 to 0.5 µM
CNC(=O)NCC1CCN(c2ncnc3cc(OC)c(OC)cc23)CC1 [Compound 73],IC50,[1],> 5 µM
Cc1cnc(C)n1-c1cc(N2CCN(CCP(=O)(O)O)CC2)ncn1 [Compound 103],IC50,[1],0.05 to 0.5 µM
COc1cc2nccc(N3CCC(CCP(=O)(O)O)CC3)c2cc1OC [Compound 71],IC50,[1],0.05 to 0.5 µM
COc1cccc2c(N3CCC(COP(=O)(O)O)CC3)ncnc12 [Compound 86],IC50,[1],< 0.005 µM
COc1cc2ncnc([C@H]3CC[C@H](CCP(=O)(O)O)CC3)c2cc1OC [Compound 82],IC50,[1],0.005 to 0.05 µM
O=P(O)(O)CCC1CCN(c2ncnc3ccc(O)cc23)CC1 [Compound 23],IC50,[1],0.5 to 5 µM
COc1cc2ccnc(N3CCC(CCP(=O)(O)O)CC3)c2cc1OC [Compound 38],IC50,[1],0.05 to 0.5 µM
COc1cc2ncnc(N3CCC(COP(=O)(O)O)CC3)c2cc1OC [Compound 60],IC50,[1],0.05 to 0.5 µM
COc1cc2ncnc(N3CCC(CCP(=O)(O)O)CC3)c2cc1OC [Compound 1],tumor associated CD11c+ population,4T1 tumor [4]; tumors pretreated with 20 Gy IR,increased the tumor associated CD11c^+ population
same,tumor-associated leukocyte compositions,"4T1 tumor [4]; without IR, vs PBS control",did not change tumor-associated leukocyte compositions compared to the PBS control
same,extracellular cGAMP levels,human CD14+ monocytes; 293T cGAS ENPP1low cells with transient overexpression of ENPP1,rescued extracellular cGAMP levels
same,CD14+ IFNB1 expression,human CD14+ monocytes; supernatant of ENPP1-overexpressing 293T cGAS ENPP1low cells transferred to CD14+ monocytes,induced CD14^+ IFNB1 expression
